Series [1] has as its target T1, GRK5 (Homo sapiens, UniProt P34947). Description: Intact protein MS, adduct formation with GRK5. The note with it: for Adduct by MS: incubation time needed to observe adduct formation with GRK5: intact mass MS; for covalent adduct formation with GRK5 (in words): intact MS.
Series [2] has as its target T1, GRK5. Description: Kinome-wide selectivity panel, GRK5. The conditions noted are these: read-out: inhibition of GRK5.
For series [3], the target named is T1, GRK5. Description: Covalent inhibition kinetic analysis.
Series [4] is described as follows: Thermodynamic solubility, miniaturized shake-flask. Format: physicochemical.
Series [5] in a line: Microsomal stability, HLM. The series is classed as in vitro ADME. The conditions noted are these: human, human liver microsomes. A general note: Liver microsomes are a subcellular fraction often used to study metabolism.
For series [6], the target named is T2, bovine GRK2 (Bos taurus, UniProt P21146).
T2 sequence (P21146 1-689): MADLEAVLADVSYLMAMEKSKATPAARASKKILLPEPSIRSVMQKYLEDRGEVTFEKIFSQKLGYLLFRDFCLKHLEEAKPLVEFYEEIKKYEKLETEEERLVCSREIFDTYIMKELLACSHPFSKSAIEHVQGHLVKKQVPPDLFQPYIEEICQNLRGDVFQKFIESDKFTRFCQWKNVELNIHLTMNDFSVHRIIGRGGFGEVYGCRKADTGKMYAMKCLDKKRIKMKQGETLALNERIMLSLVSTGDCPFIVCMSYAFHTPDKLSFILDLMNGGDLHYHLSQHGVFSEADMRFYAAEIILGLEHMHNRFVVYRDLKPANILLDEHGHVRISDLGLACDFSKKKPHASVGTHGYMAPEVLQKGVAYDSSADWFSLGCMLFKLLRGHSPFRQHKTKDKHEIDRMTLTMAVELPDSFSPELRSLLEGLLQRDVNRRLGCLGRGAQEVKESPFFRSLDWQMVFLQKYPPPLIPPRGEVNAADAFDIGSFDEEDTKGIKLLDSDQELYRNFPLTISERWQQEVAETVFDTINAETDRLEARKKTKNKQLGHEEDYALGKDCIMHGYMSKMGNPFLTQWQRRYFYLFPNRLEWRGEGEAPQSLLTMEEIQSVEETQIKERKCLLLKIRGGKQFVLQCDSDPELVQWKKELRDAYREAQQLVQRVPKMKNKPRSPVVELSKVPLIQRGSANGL
Description: Radiometric GRK2 inhibition assay. The series is classed as biochemical.

For series [7], the target named is PKA (Homo sapiens, UniProt P17612). Description: PKA inhibition assay, ADP-Glo.
For series [8] the following is noted: cited from earlier work.
For series [9], the system named is rodent model of hypertrophy. The conditions noted are these: cited from earlier work.

Where two headings read alike, the source gives them in different places.

T1 sequence (P34947 whole entry): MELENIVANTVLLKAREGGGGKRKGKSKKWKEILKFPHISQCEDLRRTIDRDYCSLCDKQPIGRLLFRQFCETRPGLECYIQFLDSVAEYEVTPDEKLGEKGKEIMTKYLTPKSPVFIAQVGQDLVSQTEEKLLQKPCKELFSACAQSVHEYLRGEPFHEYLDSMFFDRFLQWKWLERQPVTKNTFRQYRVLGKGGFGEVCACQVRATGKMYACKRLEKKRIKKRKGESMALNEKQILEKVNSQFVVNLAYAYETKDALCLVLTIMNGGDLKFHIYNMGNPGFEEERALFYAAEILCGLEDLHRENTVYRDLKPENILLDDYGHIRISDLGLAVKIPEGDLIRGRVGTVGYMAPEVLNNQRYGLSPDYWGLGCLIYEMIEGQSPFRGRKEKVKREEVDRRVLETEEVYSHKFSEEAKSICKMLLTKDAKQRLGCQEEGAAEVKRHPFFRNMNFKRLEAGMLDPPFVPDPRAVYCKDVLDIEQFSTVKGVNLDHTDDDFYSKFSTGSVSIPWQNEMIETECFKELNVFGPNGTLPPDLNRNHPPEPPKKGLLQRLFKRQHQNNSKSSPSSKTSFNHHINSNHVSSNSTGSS

Regarding `C=CCCNC(=O)c1c(C)[nH]c(/C=C2\C(=O)Nc3ccc(C(=O)N[C@H](C)c4ccccc4)cc32)c1C` (mixture of isomers) [Compound 5f, (R,Z)-3-((4-(but-3-en-1-ylcarbamoyl)-3,5-dimethyl-1H-pyrrol-2-yl)methylene)-2-oxo-N-(1-phenylethyl)indoline-5-carboxamide], the “Adduct by MS: incubation time needed to observe adduct formation with GRK5” value in series [1] (Table 1) is on record as above 30 min. As for `CC#CC(=O)Nc1c(C)[nH]c(/C=C2\C(=O)Nc3ccc(C(=O)N[C@H](C)c4ccccc4)cc32)c1C` (mixture of isomers) [Compound 9a, (R,Z)-3-((4-(but-2-ynamido)-3,5-dimethyl-1H-pyrrol-2-yl)methylene)-2-oxo-N-(1-phenylethyl)indoline-5-carboxamide], in [1] (Table 1), the “Adduct by MS: incubation time needed to observe adduct formation with GRK5” value was above 180 min. In series [1] (30 min incubation), the “covalent adduct formation with GRK5 (in words)” value is “unreactive”. `Cc1[nH]c(/C=C2\C(=O)Nc3ccc(C(=O)N[C@H](C)c4ccccc4)cc32)c(C)c1NC(=O)CBr` (mixture of isomers) [Compound 9g, (R,Z)-3-((4-(2-bromoacetamido)-3,5-dimethyl-1H-pyrrol-2-yl)methylene)-2-oxo-N-(1-phenylethyl)indoline-5-carboxamide]: the inhibition at 0.01 µM in series [2] turned out to be 50%. In series [1] (Table 1, 30 min incubation), the “Adduct by MS: percent adduct” value is listed as 70% 30 min. For the same compound, the “covalent adduct formation with GRK5 (in words)” value in series [1] (30 min incubation) is reported as “rapidly reacted with GRK5”. Moreover, the kinact in [3] was above 0.0167 s⁻¹. `Cc1[nH]c(/C=C2\C(=O)Nc3ccc(C(=O)N[C@H](C)c4ccccn4)cc32)c(C)c1NC(=O)CCl` (mixture of isomers) [Compound 9l, (R,Z)-3-((4-(2-chloroacetamido)-3,5-dimethyl-1H-pyrrol-2-yl)methylene)-2-oxo-N-(1-(pyridin-2-yl)ethyl)indoline-5-carboxamide]: the “solubility improvement over 9e” value in series [4] was determined as 3.5 fold.

Turning to `Cc1[nH]c(/C=C2\C(=O)Nc3ccc(C(=O)N[C@H](C)c4ccc(F)cc4)cc32)c(C)c1NC(=O)CCl` (stereo in doubt) [Compound 9j, (R,Z)-3-((4-(2-chloroacetamido)-3,5-dimethyl-1H-pyrrol-2-yl)methylene)-N-(1-(4-fluorophenyl)ethyl)-2-oxoindoline-5carboxamide], in series [5], the half-life stood at 18.9 min. For the compound `Cc1[nH]c(/C=C2\C(=O)Nc3ccc(C(=O)N[C@@H](c4ccccc4)C(C)C)cc32)c(C)c1NC(=O)CCl` (stereo in doubt) [Compound 9s, (R,Z)-3-((4-(2-chloroacetamido)-3,5-dimethyl-1H-pyrrol-2-yl)methylene)-N-(2-methyl-1-phenylpropyl)-2-oxoindoline-5-carboxamide], the IC50 is 23 ± 20 µM in [6] and above 250 µM in series [7]. The compound `Cc1[nH]c(/C=C2\C(=O)Nc3ccc(C(=O)NC(C)(C)c4ccccc4)cc32)c(C)c1NC(=O)CCl` [Compound 9r, (Z)-3-((4-(2-chloroacetamido)-3,5-dimethyl-1H-pyrrol-2-yl)methylene)-2-oxo-N-(2-phenylpropan-2-yl)indoline-5-carboxamide] registered an IC50 in series [6] of 190 ± 70 µM.

`NCCCNCCCCNCCCNc1cc2nc(-c3ccccc3Cl)[nH]c(=O)c2cc1F` [KR-39038]: in series [8], the “bioavailability (in words)” value was “low bioavailability” and the half-life was below 1 h. Also, in [9], the “effect in a rodent model of hypertrophy (in words)” value is “mild positive effects”.

In general, inhibition refers to the share of the control response that was lost under treatment. One may read the kinact as the rate constant of inactivation at saturating inhibitor. By half-life is commonly meant the time needed for the level to fall by half in the phase considered. The IC50 is the point on the concentration scale where inhibition reaches its midpoint.
